Results taken from patent US10441562B2, “Aromatic farnesyl compound and application thereof” (INSTITUTE OF MICROBIOLOGY, CHINESE ACADEMY OF SCIENCES, priority 2015, dated 2019).
Marks after values point to notes of the source that are not given here.

Tests used:
Format in all cases: in vivo
[1] = test system: hyperglycemia KK-A^y mice; assay: blood sugar of hyperglycemia KK-A^y mice; design: blood sugar: unit not given here; settings: for blood sugar at the 1st day, 0: 1st day 0 h; for blood sugar at the 1st day, 30 min: 1st day 30 min after intragastric administration
Experimental: (§1) Materials: accurately weigh the 2 compounds S13 and S28 discussed in example 2, and then add 0.5% CMC-Na to make the solution of 5 mg/ml used for activity test. KK-A^y mice are purchased from Chinese Academy of Medical Sciences & Peking Union Medical College Institute of Animal Studies. Experiments are carried out after adapting to the environment (T=20-24° C., constant humidity: 50-60%, 12 hours light exposure (8:00-20:00), soundproof, free feeding and drinking) for 1 week. Glucometer is purchased from Roche.
(§2) Methods: 10 male C57 mice of 6-8 weeks of 20-22 g are used as normal control group (1). Detect the fasting glucose of male KK-A^y mice, which are 6-8 weeks with the weight of 28-32 g, and divide them into different groups according to the blood sugar level and body weight: (2) model control group, (3) which is administered by compound S13 with the dose of 1 mg/kg, (4) which is administered by compound S13 with the dose of 5 mg/kg, (5) which is administered by compound S13 with the dose of 10 mg/kg, (6) which is administered by compound S13 with the dose of 20 mg/kg, (7) which is administered by compound S28 with the dose of 1 mg/kg, (8) which is administered by compound S28 with the dose of 5 mg/kg, (9) which is administered by compound S28 with the dose of 10 mg/kg, (10) which is administered by compound S28 with the dose of 20 mg/kg, (11) which is administered by metformin with the dose of 8 g/kg, (12) which is administered by compound S13 with the dose of 2.5 mg/kg and metformin with the dose of 4 g/kg, (13) which is administered by compound S13 with the dose of 5 mg/kg and metformin with the dose of 4 g/kg, (14) which is administered by compound S28 with the dose of 2.5 mg/kg and metformin with the dose of […], (15) which is administered by compound S28 with the dose of 5 mg/kg and metformin with the dose of […]. Each group has 8 mice, and is administrated successively for 3 weeks. Model control group is given with equal amounts of 0.5% CMC-Na.
1) Effects of drugs on blood sugar: at the first day after administration, the mice are fasted for 2 hours and blood is collected (0 h) to detect the fasting blood sugar. After the compound is given to the mice by intragastric administration for 30 min, blood is collected from tip of tail to detect the blood sugar level.
2) Effects on body weight and blood sugar: the body weight of mice are recorded at the 2th, 5th, 8th, 11th, 14th, 17th, 20th day after administration, and blood is collected from tip of tail to detect the blood sugar level (see table 10).

[2] = test system: hyperglycemia KK-A^y mice; assay: blood lipid and liver function of hyperglycemia KK-A^y mice; settings: 3 weeks
Experimental: as §1, §2
4) After the last administration, the mice are executed under anesthesia, and blood is taken to be centrifuged at 3000 rpm in 4[…]. Serum total cholesterol, low density lipoprotein and triglyceride TG are detected.

[3] = test system: hyperglycemia KK-A^y mice; assay: liver tissue section of hyperglycemia KK-A^y mice (HE); settings: FIG. 1, 10 and 20 mg/kg
Experimental: as §2, with “Detect” for “Methods: 10 male C57 mice of 6-8 weeks of 20-22 g are used as normal control group (1). Detect”, “CMC-Na. […]” for “CMC-Na.”

CC(C)=CCC/C(C)=C/CCC1=C[C@@H](c2cc(O)ccc2O)OC1=O [S28, (S,E)-5-(2,5-dihydroxyphenyl)-3-(4,8-dimethylnona-3,7-dien-1-yl)furan-2(5H)-one]
effect on blood sugar of hyperglycemia mice (in words) [1]: significant effects on blood sugar of hyperglycemia mice
blood sugar at the 1st day, 0 ([1]; 1 mg/kg, groups 3, 7): 14.5
blood sugar at the 1st day, 0 ([1]; 5 mg/kg, groups 4, 8): 14.5
blood sugar at the 1st day, 0 ([1]; 10 mg/kg, groups 5, 9): 14.2
blood sugar at the 1st day, 0 ([1]; 20 mg/kg, groups 6, 10): 14.1
blood sugar at the 1st day, 30 min ([1]; 1 mg/kg, groups 3, 7): 11.3
blood sugar at the 1st day, 30 min ([1]; 5 mg/kg, groups 4, 8): 9.42
blood sugar at the 1st day, 30 min ([1]; 10 mg/kg, groups 5, 9): 9.32
blood sugar at the 1st day, 30 min ([1]; 20 mg/kg, groups 6, 10): 6.24
blood sugar ([1]; 2st day, 1 mg/kg, groups 3, 7): 17.23
blood sugar ([1]; 2st day, 5 mg/kg, groups 4, 8): 10.2
blood sugar ([1]; 2st day, 10 mg/kg, groups 5, 9): 13.12
blood sugar ([1]; 2st day, 20 mg/kg, groups 6, 10): 13.25
blood sugar ([1]; 5st day, 1 mg/kg, groups 3, 7): 14.1
blood sugar ([1]; 5st day, 5 mg/kg, groups 4, 8): 10.8
blood sugar ([1]; 5st day, 10 mg/kg, groups 5, 9): 13.5
blood sugar ([1]; 5st day, 20 mg/kg, groups 6, 10): 12.5
blood sugar ([1]; 8st day, 1 mg/kg, groups 3, 7): 13.8
blood sugar ([1]; 8st day, 5 mg/kg, groups 4, 8): 7.12
blood sugar ([1]; 8st day, 10 mg/kg, groups 5, 9): 14.1
blood sugar ([1]; 8st day, 20 mg/kg, groups 6, 10): 12.8
blood sugar ([1]; 11st day, 1 mg/kg, groups 3, 7): 15.3
blood sugar ([1]; 11st day, 5 mg/kg, groups 4, 8): 8.21
blood sugar ([1]; 11st day, 10 mg/kg, groups 5, 9): 14.3
blood sugar ([1]; 11st day, 20 mg/kg, groups 6, 10): 12.9
blood sugar ([1]; 14st day, 1 mg/kg, groups 3, 7): 12.4
blood sugar ([1]; 14st day, 5 mg/kg, groups 4, 8): 8.3
blood sugar ([1]; 14st day, 10 mg/kg, groups 5, 9): 13.2
blood sugar ([1]; 14st day, 20 mg/kg, groups 6, 10): 12.5
blood sugar ([1]; 17st day, 1 mg/kg, groups 3, 7): 13.1
blood sugar ([1]; 17st day, 5 mg/kg, groups 4, 8): 8.2
blood sugar ([1]; 17st day, 10 mg/kg, groups 5, 9): 14.5
blood sugar ([1]; 17st day, 20 mg/kg, groups 6, 10): 12.5
blood sugar ([1]; 20st day, 1 mg/kg, groups 3, 7): 12.43
blood sugar ([1]; 20st day, 5 mg/kg, groups 4, 8): 10.23
blood sugar ([1]; 20st day, 10 mg/kg, groups 5, 9): 14.12
blood sugar ([1]; 20st day, 20 mg/kg, groups 6, 10): 12.45
ALT ([2]; 1 mg/kg, groups 3, 7): 72.5** U/L
AST ([2]; 1 mg/kg, groups 3, 7): 56.5** U/L
HDL-C ([2]; 1 mg/kg, groups 3, 7): 22.1 mg/dL
LDL-C ([2]; 1 mg/kg, groups 3, 7): 64** mg/dL
SOD ([2]; 1 mg/kg, groups 3, 7): 5.12** U/L
TC ([2]; 1 mg/kg, groups 3, 7): 134** mg/dL
TG ([2]; 1 mg/kg, groups 3, 7): 325** mg/dL
ALT ([2]; 5 mg/kg, groups 4, 8): 71.2** U/L
AST ([2]; 5 mg/kg, groups 4, 8): 63.6** U/L
HDL-C ([2]; 5 mg/kg, groups 4, 8): 22.3 mg/dL
LDL-C ([2]; 5 mg/kg, groups 4, 8): 69* mg/dL
SOD ([2]; 5 mg/kg, groups 4, 8): 4.25* U/L
TC ([2]; 5 mg/kg, groups 4, 8): 134** mg/dL
TG ([2]; 5 mg/kg, groups 4, 8): 312** mg/dL
ALT ([2]; 10 mg/kg, groups 5, 9): 62.5** U/L
AST ([2]; 10 mg/kg, groups 5, 9): 60.6** U/L
HDL-C ([2]; 10 mg/kg, groups 5, 9): 22.5 mg/dL
LDL-C ([2]; 10 mg/kg, groups 5, 9): 69* mg/dL
SOD ([2]; 10 mg/kg, groups 5, 9): 4.12* U/L
TC ([2]; 10 mg/kg, groups 5, 9): 135** mg/dL
TG ([2]; 10 mg/kg, groups 5, 9): 331** mg/dL
ALT ([2]; 20 mg/kg, groups 6, 10): 61.5** U/L
AST ([2]; 20 mg/kg, groups 6, 10): 60.6** U/L
HDL-C ([2]; 20 mg/kg, groups 6, 10): 22.4 mg/dL
LDL-C ([2]; 20 mg/kg, groups 6, 10): 54** mg/dL
SOD ([2]; 20 mg/kg, groups 6, 10): 4.34* U/L
TC ([2]; 20 mg/kg, groups 6, 10): 123** mg/dL
TG ([2]; 20 mg/kg, groups 6, 10): 312** mg/dL
fat vacuole in hepatocyte (liver tissue section, HE) [3]: almost disappear
